Source: ChEMBL document CHEMBL4330078, “Discovery of potent Pan-Raf inhibitors with increased solubility to overcome drug resistance” (Eur J Med Chem, 2019)

Assays:
[1] = AUC (0 to infinity) in Sprague-Dawley rat at 10 mg/kg, po by LC-MS/MS analysis; assay type: ADME, organism-based; set-up: dose 10 mg/kg, route oral, time infinity; details: in vivo
[2] = Oral bioavailability in Sprague-Dawley rat at 10 mg/kg by LC-MS/MS analysis; assay type: ADME, organism-based; details: in vivo
[3] = Tmax in Sprague-Dawley rat at […], iv by LC-MS/MS analysis; assay type: ADME, organism-based; details: in vivo
[4] = Volume of distribution at steady state in Sprague-Dawley rat at […], iv by LC-MS/MS analysis; assay type: ADME, organism-based; details: in vivo, read-out: Vdss
[5] = Clearance in Sprague-Dawley rat at […], iv by LC-MS/MS analysis; assay type: ADME, organism-based; details: in vivo
[6] = AUC (0 to t) in Sprague-Dawley rat at 10 mg/kg, po by LC-MS/MS analysis; assay type: ADME, organism-based; details: in vivo
[7] = AUC (0 to infinity) in Sprague-Dawley rat at […], iv by LC-MS/MS analysis; assay type: ADME, organism-based; set-up: dose 2.5 mg/kg, time infinity, route intravenous; details: in vivo
[8] = Cmax in Sprague-Dawley rat at […], iv by LC-MS/MS analysis; assay type: ADME, organism-based; set-up: dose 2.5 mg/kg, route intravenous; details: in vivo
[9] = Half life in human liver microsomes at 0.5 uM by LC-MS/MS analysis; assay type: ADME, Microsome
[10] = Cmax in Sprague-Dawley rat at 10 mg/kg, po by LC-MS/MS analysis; assay type: ADME, organism-based; set-up: dose 10 mg/kg, route oral; details: in vivo
[11] = AUC (0 to t) in Sprague-Dawley rat at […], iv by LC-MS/MS analysis; assay type: ADME, organism-based; details: in vivo
[12] = Half life in Sprague-Dawley rat at […], iv by LC-MS/MS analysis; assay type: ADME, organism-based; details: in vivo
[13] = Tmax in Sprague-Dawley rat at 10 mg/kg, po by LC-MS/MS analysis; assay type: ADME, organism-based; details: in vivo

Structure (SMILES) | AUC(0-inf) [1] [ng·h/mL] | bioavailability [2] [%] | Tmax [3] [min] | Vd [4] [L/kg] | clearance [5] [mL/min/kg] | AUC(0-t) [6] [ng·h/mL] | AUC(0-inf) [7] [ng·h/mL] | Cmax [8] [ng/mL] | half-life at 0.5 µM [9] [min] | Cmax [10] [ng/mL] | AUC(0-t) [11] [ng·h/mL] | half-life [12] [min] | Tmax [13] [h]
Cc1ccc(C(=O)Nc2ccc(OCC3CCN(C)CC3)c(C(F)(F)F)c2)cc1NC(=O)C1(c2ncnc3[nH]ccc23)CC1 | 522 | 22.9 | 4.98 | 45.7 | 68.3 | 503 | 607 | 272 | 390 | 72.1 | 549 | 462 | 4
CNC(=O)c1cc(Oc2ccc(NC(=O)Nc3ccc(Cl)c(C(F)(F)F)c3)cc2)ccn1 [SORAFENIB] | – | – | – | – | – | – | – | – | 336 | – | – | – | –
